Columns and labels:
[1] = tested on: ApoE knockout mice; assay: Regression of aortic lesions in ApoE knockout mice on atherogenic diet; assay type: in vivo; conditions: for aortic lesions, area stained with Oil Red O, versus high fat diet controls (FIGS. 7A and 7B): liposomes intravenously once every four days for two weeks, 6 mg/kg, after four weeks atherogenic diet; for color of livers versus untreated mice: preliminary examination, ApoE knockout mice on atherogenic diet
Text: In regression experiments, ApoE knockout mice were placed on an atherogenic diet as described in Example 11 for four weeks, following which they were divided into two groups. One group continued on the diet for an additional two weeks. The other group continued on the diet for the same period but also received once every four days liposomes containing a peptide corresponding to amino acids 1-20 of murine SAA2.1 (SEQ ID NO:1; Group B of FIG. 7A and Group hf+p1 of FIG. 7B) or liposomes containing a peptide corresponding to amino acids 74-103 of murine SAA2.1 (SEQ ID NO:4; Group D of FIG. 7A and Group hf+p4 of FIG. 7B). The control group received high fat diet alone with no liposomes (Group A of FIG. 7A and Group high fat of FIG. 7B). An additional group was placed on a normal mouse chow diet (Group C of FIG. 7A and Group low fat of FIG. 7B). A further additional Group receiving liposomes containing a peptide corresponding to amino acids 1-20 of murine SAA2.1 (SEQ ID NO:1) and liposomes containing a peptide corresponding to amino acids 74-103 of murine SAA2.1 (SEQ ID NO:4) is depicted in FIG. 7B and is referred to as hf+p1+p4. FIG. 7B is inclusive of data present in FIG. 7A as well as data from a subsequent experiment performed under the same conditions. After the two weeks, the mice were killed and their aortas were dissected and stained with Oil Red O. Data of FIG. 7A depict the area stained with Oil Red O indicative of the actual lipid positive area as a percentage of the total aortic area viewed. Data of FIG. 7B depict the area stained with Oil Red O as a percentage relative to the high fat diet group (100%).
The efficacy of SAA2.1 peptides in regression of atherosclerosis was examined. The peptides tested included SEQ ID NO:1 and SEQ ID NO:4. The peptides were injected intravenously once every four (4) days during atherogenic induction for a period of 2 weeks (i.e. four doses at 6 mg/kg).
To determine if these peptides cause regression of atherosclerosis, the animals were placed on an atherogenic diet (Paigen's Atherogenic Rodent Diet: Purina 5015 with cocoa butter, cholesterol and cholic acid (CI3002, Research Diets, Inc.)) for […], following which they were divided into two groups of 5 animals each. One group continued on the diet for an additional two weeks. […]
To assess the effects of the peptides on aortic atherosclerosis, at the termination of the experiment, the aorta was removed from the animals and opened longitudinally. The endothelial surface was stained with Oil Red O and the area occupied by lipid was measured by image analysis. Furthermore, histological sections of aorta were prepared for microscopic analysis and total lipids were isolated to measure the quantity of cholesterol per wet weight of tissue. […]

[2] = tested on: THP-1 cells; assay: Cholesterol efflux from cholesterol-laden human THP-1 cells; assay type: cell-based; conditions: liposomal formulations; cholesterol-laden THP-1 cells differentiated with phorbol myristate acetate
Experimental: These monocytes were differentiated into macrophages with phorbol myristate acetate (100 nM). In these experiments, cholesterol-laden human THP-1 cells were exposed to liposomal formulations comprising a peptide corresponding to amino acids 1-20 of murine SAA2.1 (SEQ ID NO:1), a peptide corresponding to amino acids 74-103 of murine SAA2.1 (SEQ ID NO:4), a peptide corresponding to amino acids 1-20 of murine SAA1.1 plus an arginine at the N-terminus (SEQ ID NO:7), or a peptide corresponding to amino acids 1-20 of murine SAA2.1 (SEQ ID NO:1) and a peptide corresponding to amino acids 74-103 (SEQ ID NO:4) of murine SAA2.1. Results from these experiments are depicted in FIG. 4. […] Studies were carried out to determine whether murine SAA2.1 increases cholesterol export from a human derived monocytic cell line, THP-1 (obtained from American Type Culture Collection, Manassas, Va.; ATCC#TIB-202). Human monocytes were cultured in T-75 flasks with 30 ml RPMI 1640 medium containing 2 mM L-glutamine, 4.5 g/L glucose, 10 mM HEPES, 1.0 mM […] and supplemented with 0.05 mM 2-mercaptoethanol and 10% fetal bovine serum. Subsequently, five million cells were placed in each well of a 6-well tissue culture plate. The monocytes were differentiated into macrophages by treatment with phorbol myristate acetate (100 nM). THP-1 macrophages were enriched with cholesterol by incubating with red blood cells membrane fragments (175 μg as cholesterol) that had been previously labelled with 0.5 μCi/mL[^3H]-cholesterol at 37° C. for 6 hours in 0.2% bovine serum albumin, followed by an overnight equilibration period. Cells were washed four times with PBS/BSA prior to efflux studies. Cells were then incubated at 37° C. with 2 mL RPMI-BSA containing 5% LPDS and 50 μg/mL of either native HDL, SAA-HDL, liposomes containing 2 μmoles of apoA-I, SAA1.1 or 2.1, or liposomes containing 0.5 μmoles synthetic peptides corresponding to amino acid residues 1-20 (SEQ ID NO:1), 21-50 (SEQ ID NO:2), 51-80 (SEQ ID NO:3) or 74-103 (SEQ ID NO:4) of murine SAA2.1. The efflux media were collected at 0, 1, 2, 4, 8, 16 and 24 hours, centrifuged to remove cell debris, and then used to measure the exported counts. […] A portion of the cells was lysed in 0.1N NaOH to estimate both the remaining radioactivity and the cellular protein content. Cellular lipids were extracted from the remaining portion of the cells and analyzed by thin-layer chromatography as described by Mendez et al. (J. Clin. Invest. 1994 94:1698-1705) and Oram et al. (Arterioscler. Thromb. 1991 11:403-414). The radioactivity in appropriate spots was measured to determine total cellular cholesterol counts. Efflux of radioactive label to the medium was calculated as the percentage of total counts (cell+medium counts) in each well.

[3] = tested on: hepatic, macrophage, and pancreatic cholesterol esterase; conditions: Lindhorst 1997; Ely 2001; Tam 2002; cited from earlier work

| Molecule | aortic lesions, area stained with Oil Red O, versus high fat diet controls (FIGS. 7A and 7B) [1] | color of livers versus untreated mice [1] | cholesterol efflux, time course (FIG. 4) [2] | cholesterol esterase activities in vitro [3] |
| --- | --- | --- | --- | --- |
| DTIADQEANRHGRSGKDPNYYRPPGLPDKY [SEQ ID NO:4, synthetic peptide, residues 74-103 of murine SAA2.1] | showed regression of aortic lesions | more normal reddish color | demonstrated to increase cholesterol efflux | – |
| GFFSFVHEAFQGAGDMWRAY [SEQ ID NO:1, synthetic peptide, residues 1-20 of murine SAA2.1] | showed regression of aortic lesions | more normal reddish color | demonstrated to increase cholesterol efflux | – |
| GFFSFVHEAFQGAGDMWRAYTDMKEANWKNSDKYFHARGNYDAAQRGPGGVWAAEKISD GREAFQEFFGRGHEDTIADQEANRHGRSGKDPNYYRPPGLPDKY (protein, listed as Mus musculis, full length murine serum amyloid A isoform 2.1 purified from acute phase plasma) GFFSFVHEAFQGAGDMWRAYTDMKEANWKNSDKYFHARGNYDAAQRGPGGVWAAEKISDGREAFQEFFGRGHEDTIADQEANRHGRSGKDPNYYRPPGLPDKY | – | – | – | stimulate hepatic, macrophage, and pancreatic cholesterol esterase activities in vitro |

From US8703698B2, “Compositions and methods for treating atherosclerosis” (The University of Chicago, priority 2003, dated 2014)
